Reference: US20100279942A1, “METHODS FOR TREATING MOTOR NEURON DISEASE” (priority 2004, published 2010)
Where “and” joins values, the source holds several entries; their conditions need not be identical. Identical values can stand only once. Entries after “also recorded” stand apart in the source; their conditions may differ. Ends that are not written are not given here.

Assays:
[1] = tested on: F11 cells transformed with SOD1 mutant (A4T-SOD1, G85R-SOD1, G93R-SOD1) genes; experiment: Neuronal cell death test, Trypan blue exclusion assay, F11 cells transformed with SOD1 mutant genes; format: cell-based, rat/mouse hybrid cell
Experimental: F11 cell, the hybrid cell of rat embryonic day 13 (E13) primary cultured neuronal cell with mouse neuroblastoma NTG18 cell, was cultured in Ham's F-12 medium (Life Technologies, Gaithersburg, Md.) containing 18% FBS (Hyclone, Logan, Utah) and antibiotics as previously reported (Platika D, et al., 1985, Proc Natl Acad Sci USA 82: 3499-3503; Yamatsuji T, et al., 1996, Science 272: 1349-1352; Huang P, et al., 2000, Mol Hum Reprod 6: 1069-1078; and Niikura T, et al., 2001, J Neuroscience, 21: 1902-1910).
The F11 cells (7×10^4 cells/well, 6-well plate, 12- to 16-hour culture in Ham's F-12 (18% PBS) medium) were transformed with wild-type or SOD1 mutant (A4T, G85R, and G93R) genes by lipofection (0.5 μg of each SOD1 gene; 1 μl of LipofectAMINE; 2 μl of PLUS Reagent) under serum-free conditions for 3 hours and cultured for 2 hours in Ham's F-12 (18% PBS) medium. The medium was replaced by Ham's F-12 (10% PBS) in the presence or absence of ADNF. After 72 hours of the transformation, cell mortality was measured by Trypan blue exclusion assay as previously reported (Hashimoto Y, et al., 2001, J Neurosci 21: 9235-9245; and Hashimoto Y, et al, 2001, Proc Natl Acad Sci USA 98: 6336-6341). […]
Intracellular signaling by ADNF was examined. F11 cells were transformed with pEF-BOS or SOD1 mutant (A4T-SOD1, G85R-SOD1, or G93R-SOD1) cDNA and reacted with 10 nM wortmannin (PI3 kinase inhibitor), 100 μM genistein (tyrosine kinase inhibitor), 50 μM PD98059 (MEK inhibitor), 20 μM SB203580 (p38 MAPK inhibitor), 1 μM AG490 (JAK kinase inhibitor), 5 μM KN93 (calcium/calmodulin-dependent kinase inhibitor), or 10 μM HA1004 (protein kinase A inhibitor) in the presence or absence of 100 nM ADNF. After 72 hours of the transformation, cell mortality was measured by Trypan blue exclusion assay.
The effect of KN93 on the neuroprotective action of ADNF was examined. […] After 72 hours of the transformation, cell mortality was measured by Trypan blue exclusion assay. […]

[2] = tested on: SOD1 proteins; experiment: Immunoblot analysis of SOD1 protein expression in transformed cells; format: cell-based, mouse and rat/mouse hybrid; conditions: ADNF treatment; F11 and NSC34 cells
Experimental: Immunoblot analysis was conducted according to the previous report (Hashimoto Y, et al., supra, p. 6336-6341). To examine the protein expression of wild-type or SOD1 mutant genes, lysates from the cells transfected with each SOD1 gene were subjected to SDS-PAGE (20 μg/lane). After electrical blotting to a PVDF membrane, the membrane was blocked by a typical method and reacted with an anti-SOD1 antibody and then with a 1:5000-diluted horseradish peroxidase-conjugated anti-mouse IgG antibody (Bio-Rad Lab. Hercules, Calif., USA). The antibody-reactive bands were detected by ECL (Amersham Pharmacia Biotech, Uppsala, Sweden).

[3] = tested on: G93A-SOD1 Tg mice; experiment: Motor performance (rotarod), disease onset and survival in G93A-SOD1 Tg mice; format: in vivo, mouse
From the text: Transgenic (Tg) mice (hereinafter, referred to as “G93A-SOD1 Tg mice”) expressing human FALS-associated SOD1 mutant gene with a mutation (G93A) from Gly to Ala at 93 position are the best-established mouse model of ALS (Gurney M E, et al., 1994, Science 264: 1772-1775; and Gurney M E, et al., 1997, J Neurol Sci 152 Suppl 1: S67-73). The G93A-SOD1 Tg mice manifest symptoms quite similar to human ALS after normal birth and rapidly result in death in all cases. The G93A-SOD1 Tg mice, which have the onset of the regression of motor neurons similar clinically and pathologically to that in human ALS, have been known so far to be the most excellent model of ALS throughout the world and employed for identifying effective candidate agents for ALS patients.
The model mice were used to confirm the in vivo effect of ADNF on neurotoxicity induced by G93A-SOD1.
The G93A-SOD 1 Tg mice were purchased from Jackson Laboratories (Bar Harbor, Me.). The G93A-SOD1 Tg mice were kept as hemizygote mice by the mating thereof with C57BL/6J mice (CLEA Japan, Inc). The mice were raised in a SPF room (specific pathogen-free animal facility; 23±1° C., 55±5% humidity) in the 12-hour light/[…] (7:00 AM-7:00 PM). The mice were freely fed with gamma ray-irradiated Picolab Rodent Diet 20 (PMI Feeds Inc. St. Louis, Mo.) and sodium hyposulfite (5 ppm)-containing aseptic deionized distilled water.
The G93A-SOD1 Tg mice at 10 weeks of age were put under anesthesia by the intraperitoneal injection of 10% sodium pentobarbital (60 mg/kg). A hole was made on the cranial bone with a drill on the operating table of a stereotactic instrument to aseptically transplant the C315GS-4 cannula system for mouse (Plastics One Inc., Roanoke, Va.) to the mouse left cerebral ventricle. The cannula was fixed with a surgical adhesive and dental cement. The mice at 80 days of age were divided at random to a saline (control)-administered group (n=8) and an ADNF-administered group (n=11), and 3 μl of saline and 3 μl of 30 nmol ADNF were intracerebroventricularly (icv) injected each day to the former and the latter groups, respectively, until the end of the experiment. The injection was performed with the cannula in C3151S-4 connected to Hamilton syringe through a cannula tube (C232, PE50/Thin wall, Plastic One).
The motor function (motor performance) was evaluated weekly with a rotarod (CLEA Japan Inc). After the cannulation, the mice were acclimated to the rotarod for 2 days. The mice were placed onto a rotating rod moving at 5 rpm, and the time for which each mouse could remain on the rod was automatically detected. The test was conducted according to the protocol wherein the test was completed as a score of 7 minutes if the mouse remained on the rod for 7 minutes (Li M, et al., 2000, Science 288: 335-339; and Kaspar B K, et al., 2003, Science 301: 839-842). Disease onset was defined as the first day when the mouse could not remain on the rotarod for 7 minutes.
Death was defined when the mouse was unable to right itself within 30 seconds after being placed on its back (Li M, et al., supra).

## SALLRSIPA [ADNF, short peptide consisting of nine amino acid residues]
[1]; 10 aM ADNF, three SOD1 mutant genes, 72 hours
  cell death inhibition: hardly exhibited cell death inhibition
[1]; 100 fM ADNF, A4T-, G85R-, G93R-SOD1, 72 hours after transformation
  cell mortality induced by SOD1 mutant genes: completely decreased cell mortalities induced by these three types of SOD1 mutant genes to the level of the control
[1]; ADNF at concentrations equal to or above 10 nM
  protective action on cell death caused by SOD1 mutant genes: complete protective action
[2]
  SOD1 gene expression levels: not affected
[3]; 30 nmol ADNF icv each day
  disease onset versus saline-administered group: prone to be delayed; also recorded: no significant difference
  survival rate versus ALS control mice: no difference
[3]; 30 nmol ADNF icv each day, n = 11
  Survival days: 155.3 ± 3.7 days and 155.3 ± 2.2 days
[3]; 30 nmol ADNF icv each day, n = 11, onset = first day unable to remain on rotarod for 7 minutes
  Disease onset days: 127.3 ± 2.6 days
[3]; Week 16, 30 nmol ADNF icv each day from 80 days of age
  motor performance (rotarod) versus control mice: significantly better than that of the control mice
[3]; Week 18 to Week 20, 30 nmol ADNF icv each day
  motor performance (rotarod) versus control mice: this difference between the control mice and the ADNF-treated mice disappeared
